In article PMC3726002 (Bioorganic & medicinal chemistry letters, 2011):

Legend:
α9α10 nAChRs = α9α10 nAChRs (Rattus norvegicus, UniProt P43144+Q9JLB5); type: cell-based; conditions: for selectivity for the α9α10 subtype vs. the α7 subtype: ratio of α7 to α9α10 IC50; for inhibition of α9α10 ACh-gated currents at the probe concentration: 100 nM probe concentration, result in words
[1] = cited from earlier work
[2] = phase 2; cited from earlier work
[3] = cited from earlier work; for tolerance to the antihyperalgesic effect: rat, repeated dosing (7 days)
[4] = rat CCI pain model as printed; cited from earlier work
[5] = rat; cited from earlier work
α7 nAChR = α7 nAChR (Rattus norvegicus, UniProt Q05941); type: cell-based
GABAA receptors = assay: Interaction with GABAA receptors; conditions: unpublished data
GABAB receptors = GABAB receptors (Homo sapiens, UniProt O75899+Q9UBS5); assay: Interaction with GABAB receptors; conditions: unpublished data
5HT3 receptors = molecular target: T1, 5HT3 receptors (Homo sapiens, UniProt P46098); assay: Affinity for 5HT3 receptors; type: binding; conditions: unpublished data
T1 sequence (P46098 24-478): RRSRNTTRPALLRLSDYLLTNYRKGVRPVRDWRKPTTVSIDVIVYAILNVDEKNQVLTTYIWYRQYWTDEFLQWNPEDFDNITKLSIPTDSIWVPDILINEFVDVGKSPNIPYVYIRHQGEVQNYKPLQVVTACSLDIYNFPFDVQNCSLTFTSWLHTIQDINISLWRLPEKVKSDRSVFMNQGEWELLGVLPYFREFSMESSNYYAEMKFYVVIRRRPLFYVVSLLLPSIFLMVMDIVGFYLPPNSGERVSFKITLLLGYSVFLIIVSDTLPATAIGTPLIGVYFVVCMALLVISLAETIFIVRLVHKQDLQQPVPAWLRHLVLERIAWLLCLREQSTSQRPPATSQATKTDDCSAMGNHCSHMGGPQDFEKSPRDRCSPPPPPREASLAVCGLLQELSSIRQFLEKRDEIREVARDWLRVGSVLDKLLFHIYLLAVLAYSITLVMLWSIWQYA

κ-opioid receptors = κ-opioid receptors (Homo sapiens, UniProt P41145); assay: Affinity for κ-opioid receptors; type: binding; conditions: unpublished data
Chain of κ-opioid receptors (P41145 whole entry): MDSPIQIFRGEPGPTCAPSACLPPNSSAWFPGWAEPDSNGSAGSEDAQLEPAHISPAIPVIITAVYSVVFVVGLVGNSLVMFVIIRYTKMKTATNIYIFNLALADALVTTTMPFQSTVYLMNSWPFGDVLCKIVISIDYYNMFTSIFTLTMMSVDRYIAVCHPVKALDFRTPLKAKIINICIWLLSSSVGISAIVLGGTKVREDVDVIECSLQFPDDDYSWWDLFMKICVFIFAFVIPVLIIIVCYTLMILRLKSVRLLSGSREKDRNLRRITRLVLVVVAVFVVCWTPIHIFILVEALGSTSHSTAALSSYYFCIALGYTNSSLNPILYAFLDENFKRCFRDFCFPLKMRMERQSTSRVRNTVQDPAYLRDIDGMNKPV

Chain of α9α10 nAChRs (P43144 26-479): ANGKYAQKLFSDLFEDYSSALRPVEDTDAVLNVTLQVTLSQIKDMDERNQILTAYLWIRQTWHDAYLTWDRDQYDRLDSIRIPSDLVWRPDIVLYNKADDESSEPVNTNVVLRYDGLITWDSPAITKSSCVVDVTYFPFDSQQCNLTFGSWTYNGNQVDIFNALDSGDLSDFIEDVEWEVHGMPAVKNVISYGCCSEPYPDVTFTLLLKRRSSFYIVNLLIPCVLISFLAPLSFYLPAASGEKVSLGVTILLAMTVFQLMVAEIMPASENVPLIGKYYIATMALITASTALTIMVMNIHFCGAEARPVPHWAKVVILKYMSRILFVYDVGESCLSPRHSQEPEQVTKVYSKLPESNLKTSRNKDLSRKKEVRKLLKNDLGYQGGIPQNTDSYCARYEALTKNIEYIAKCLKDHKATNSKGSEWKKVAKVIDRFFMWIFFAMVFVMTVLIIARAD
Chain of α9α10 nAChRs (Q9JLB5 25-447): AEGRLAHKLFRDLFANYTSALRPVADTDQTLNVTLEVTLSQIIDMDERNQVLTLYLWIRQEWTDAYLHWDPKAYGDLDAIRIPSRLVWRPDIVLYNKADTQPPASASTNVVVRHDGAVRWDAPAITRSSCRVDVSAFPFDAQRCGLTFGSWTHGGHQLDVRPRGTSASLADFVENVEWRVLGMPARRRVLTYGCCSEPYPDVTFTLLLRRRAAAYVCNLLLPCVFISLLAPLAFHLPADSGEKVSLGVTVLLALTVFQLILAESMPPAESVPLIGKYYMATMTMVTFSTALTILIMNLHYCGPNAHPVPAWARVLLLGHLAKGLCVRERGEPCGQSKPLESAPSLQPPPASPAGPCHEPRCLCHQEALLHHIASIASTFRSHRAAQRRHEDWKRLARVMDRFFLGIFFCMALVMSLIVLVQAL
Chain of α7 nAChR (Q05941 23-502): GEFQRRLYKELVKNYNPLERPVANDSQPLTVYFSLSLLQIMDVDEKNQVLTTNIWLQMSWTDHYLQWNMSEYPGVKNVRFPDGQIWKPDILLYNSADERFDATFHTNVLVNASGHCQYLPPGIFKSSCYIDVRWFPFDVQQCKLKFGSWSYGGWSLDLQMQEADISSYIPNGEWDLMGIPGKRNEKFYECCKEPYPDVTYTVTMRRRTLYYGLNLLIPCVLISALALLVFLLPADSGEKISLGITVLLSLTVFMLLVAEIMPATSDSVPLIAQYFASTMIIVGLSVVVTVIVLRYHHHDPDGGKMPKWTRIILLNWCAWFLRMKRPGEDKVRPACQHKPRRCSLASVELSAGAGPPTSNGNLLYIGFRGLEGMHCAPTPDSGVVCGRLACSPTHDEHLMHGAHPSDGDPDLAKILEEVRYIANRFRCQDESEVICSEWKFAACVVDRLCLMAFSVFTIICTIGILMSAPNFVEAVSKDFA
Chain of GABAB receptors (Q9UBS5 15-961 limits assumed): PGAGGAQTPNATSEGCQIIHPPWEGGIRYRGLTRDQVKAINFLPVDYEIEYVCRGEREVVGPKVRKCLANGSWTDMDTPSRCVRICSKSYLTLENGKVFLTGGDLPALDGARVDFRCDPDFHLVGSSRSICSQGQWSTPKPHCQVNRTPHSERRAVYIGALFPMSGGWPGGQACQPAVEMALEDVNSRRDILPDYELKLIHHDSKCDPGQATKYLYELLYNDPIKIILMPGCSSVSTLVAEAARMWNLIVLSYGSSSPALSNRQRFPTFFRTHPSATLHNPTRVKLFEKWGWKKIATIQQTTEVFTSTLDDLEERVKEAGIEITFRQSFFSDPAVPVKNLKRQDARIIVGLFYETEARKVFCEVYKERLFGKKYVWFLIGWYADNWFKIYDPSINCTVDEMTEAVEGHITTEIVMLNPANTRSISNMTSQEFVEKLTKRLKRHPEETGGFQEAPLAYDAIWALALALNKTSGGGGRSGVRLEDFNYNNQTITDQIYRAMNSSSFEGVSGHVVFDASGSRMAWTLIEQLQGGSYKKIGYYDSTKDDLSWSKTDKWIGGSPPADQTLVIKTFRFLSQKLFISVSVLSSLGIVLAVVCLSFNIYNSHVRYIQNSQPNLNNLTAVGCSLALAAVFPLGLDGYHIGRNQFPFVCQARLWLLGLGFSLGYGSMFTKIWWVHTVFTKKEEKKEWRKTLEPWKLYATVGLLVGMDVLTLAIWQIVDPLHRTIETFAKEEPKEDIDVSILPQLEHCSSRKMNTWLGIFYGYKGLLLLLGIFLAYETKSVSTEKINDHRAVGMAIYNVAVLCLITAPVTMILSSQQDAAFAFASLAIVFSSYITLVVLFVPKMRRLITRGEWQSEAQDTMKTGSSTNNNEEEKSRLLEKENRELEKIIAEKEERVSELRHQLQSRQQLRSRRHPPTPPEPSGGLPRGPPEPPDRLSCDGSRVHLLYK
Chain of GABAB receptors (O75899 42-941): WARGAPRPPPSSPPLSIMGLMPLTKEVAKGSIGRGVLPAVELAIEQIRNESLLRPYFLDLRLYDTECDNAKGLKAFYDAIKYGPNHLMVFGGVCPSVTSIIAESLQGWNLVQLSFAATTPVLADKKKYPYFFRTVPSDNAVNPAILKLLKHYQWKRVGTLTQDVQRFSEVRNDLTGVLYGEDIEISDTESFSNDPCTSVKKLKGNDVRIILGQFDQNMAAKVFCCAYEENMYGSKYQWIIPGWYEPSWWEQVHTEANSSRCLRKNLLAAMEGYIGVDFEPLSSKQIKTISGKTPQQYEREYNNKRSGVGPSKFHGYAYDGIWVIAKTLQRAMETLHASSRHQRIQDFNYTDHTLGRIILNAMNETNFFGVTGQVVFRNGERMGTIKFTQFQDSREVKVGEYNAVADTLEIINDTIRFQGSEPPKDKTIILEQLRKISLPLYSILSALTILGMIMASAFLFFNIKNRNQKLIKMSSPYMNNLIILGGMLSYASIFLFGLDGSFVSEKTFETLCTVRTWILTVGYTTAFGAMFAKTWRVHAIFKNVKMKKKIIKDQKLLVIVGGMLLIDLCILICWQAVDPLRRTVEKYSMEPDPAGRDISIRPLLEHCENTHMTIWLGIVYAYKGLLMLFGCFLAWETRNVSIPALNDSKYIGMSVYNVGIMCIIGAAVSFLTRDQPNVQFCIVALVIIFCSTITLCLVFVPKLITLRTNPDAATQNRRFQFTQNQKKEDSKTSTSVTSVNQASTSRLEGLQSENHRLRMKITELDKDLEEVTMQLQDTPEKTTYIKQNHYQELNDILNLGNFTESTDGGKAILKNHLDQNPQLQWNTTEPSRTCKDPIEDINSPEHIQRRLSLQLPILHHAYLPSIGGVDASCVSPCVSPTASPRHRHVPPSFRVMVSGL

SMILES | analgesic effect in the rat tail-flick test [1] | analgesic effect in the rat formalin model [2] | effect on mechanical hyperalgesia in the rat CCI model [3] | tolerance to the antihyperalgesic effect [3] | efficacious doses versus doses producing toxicity in the rotarod test [5] | IC50 (α9α10 nAChRs) | IC50 (α7 nAChR) | inhibition of α9α10 ACh-gated currents at the probe concentration (α9α10 nAChRs) | further results
Cc1cc[n+](CC#Cc2ccc(-c3ccc(C#CC[n+]4ccc(C)c(C)c4)cc3)cc2)cc1C.[Br-].[Br-] [Compound 7a] | ineffective | demonstrated an analgesic effect | reversed mechanical hyperalgesia in a dose-related manner | not observed | efficacy was achieved at doses well below those that produced toxicity |  |  |  | selectivity for the α9α10 subtype vs. the α7 subtype (α9α10 nAChRs): 75 fold; alleviation of vincristin-induced neuropathic pain [4]: effective
Cc1cc[n+](CCCc2ccc(-c3ccc(CCC[n+]4ccc(C)c(C)c4)cc3)cc2)cc1C.[Br-].[Br-] [Compound 8a] |  |  |  |  |  | 670 nM | 6010 nM |  | selectivity for the α9α10 subtype vs. the α7 subtype (α9α10 nAChRs): 9 fold
C(#Cc1cc(C#CCCC[n+]2cccc(-c3ccccc3)c2)cc(C#CCCC[n+]2cccc(-c3ccccc3)c2)c1)CCC[n+]1cccc(-c2ccccc2)c1 [Compound 9e] |  |  |  |  |  | 1.7 nM | 185 nM |  | 
[Br-].[Br-].[Br-].c1ccc2c(c1)ccc[n+]2CCCCCc1cc(CCCCC[n+]2cccc3ccccc32)cc(CCCCC[n+]2cccc3ccccc32)c1 [Compound 10c] | ineffective | demonstrated an analgesic effect | reversed mechanical hyperalgesia in a dose-related manner | not observed | efficacy was achieved at doses well below those that produced toxicity | 4.2 nM | 1510 nM |  | 
c1ccc2c[n+](CCCCCc3cc(CCCCC[n+]4ccc5ccccc5c4)cc(CCCCC[n+]4ccc5ccccc5c4)c3)ccc2c1 [Compound 10d] |  |  |  |  |  | 4.8 nM | 170 nM |  | 
c1ccc(-c2ccc[n+](CCCCCc3cc(CCCCC[n+]4cccc(-c5ccccc5)c4)cc(CCCCC[n+]4cccc(-c5ccccc5)c4)c3)c2)cc1 [Compound 10e] |  |  |  |  |  | 3.7 nM | 91 nM |  | 
Cc1cc(C)c[n+](CCCC#Cc2cc(C#CCCC[n+]3cc(C)cc(C)c3)c(C#CCCC[n+]3cc(C)cc(C)c3)cc2C#CCCC[n+]2cc(C)cc(C)c2)c1.[Br-].[Br-].[Br-].[Br-] [Compound 11b] |  |  |  |  |  |  |  | nearly complete inhibition | 
C(#Cc1cc(C#CCCC[n+]2cccc(-c3ccccc3)c2)c(C#CCCC[n+]2cccc(-c3ccccc3)c2)cc1C#CCCC[n+]1cccc(-c2ccccc2)c1)CCC[n+]1cccc(-c2ccccc2)c1.[Br-].[Br-].[Br-].[Br-] [Compound 11e] | ineffective | demonstrated an analgesic effect | reversed mechanical hyperalgesia in a dose-related manner | not observed | efficacy was achieved at doses well below those that produced toxicity | 0.56 nM | 8.8 nM | nearly complete inhibition | interaction with GABAA receptors (GABAA receptors): does not interact; interaction with GABAB receptors (GABAB receptors): does not interact; affinity for 5HT3 receptors compared to α9α10 nAChRs (5HT3 receptors): several orders of magnitude lower affinity; affinity for κ-opioid receptors compared to α9α10 nAChRs (κ-opioid receptors): several orders of magnitude lower affinity
Cc1cc(C)c[n+](CCCCCc2cc(CCCCC[n+]3cc(C)cc(C)c3)c(CCCCC[n+]3cc(C)cc(C)c3)cc2CCCCC[n+]2cc(C)cc(C)c2)c1.[Br-].[Br-].[Br-].[Br-] [Compound 12b] |  |  |  |  |  |  |  | nearly complete inhibition | 
